{"source": "patent US6160006A", "about": "(priority 1997, dated 2000)", "key": {"P450 2B1": {"tested_on": "P450 2B1", "settings": "cited from earlier work"}, "P450 2B4": {"tested_on": "P450 2B4", "settings": "cited from earlier work"}, "P450 3A4 [1]": {"target": "T1, P450 3A4 (Homo sapiens, UniProt P08684)", "experiment": "Inactivation of P450 3A4 in human liver microsomes (testosterone 6β-hydroxylation, P450 content)", "format": "biochemical", "parameters": "The human liver microsomes was prepared by differential centrifugation; from tissue; host or cells: human liver (microsomes)", "settings": "for P450 Content / Testosterone 6-β hydroxylation: 400 μM DHB, 15 min, 37° C., pH 7.5", "method": "Inactivation of P450 3A4 in human liver microsomes and E. coli membranes. […] At end of the incubation, 100 μl of the incubation mixture was taken for determination of testosterone 6β-hydroxylation activity. The other aliquot was used for P450 determination by the method of Omura and Sato. Ducharme, M. P. et al., Clin. Pharmacol. Ther. 57:485-491 (1995). The human liver microsomes was prepared by differential centrifugation.\nDetermination of testosterone 6β-hydroxylation. The human liver microsomes or the P450 3A4 and reductase containing E. coli membrane fractions ([…] of P450) were incubated with 200 μM testosterone in 1 ml of 50 mM Hepes buffer (pH 7.5). The reactions were initiated by the addition of 1 mM NADPH and terminated by 1 ml of ethyl acetate in ice. The 6β-hydoxytestosterone product was determined by HPLC on a C18 column (Microsorb-MV, 5 μm, 4.6×15 cm) eluted with a mobile phase of 65% of methanol at flow rate of 1 ml/min and the eluate was monitored by UV detection at 254 nm."}, "CYP3A4 (3A4)": {"tested_on": "CYP3A4 (3A4)", "experiment": "Inhibition of CYP3A4 in a purified enzyme preparation", "format": "biochemical"}, "P450 3A4 [2]": {"target": "T1, P450 3A4", "settings": "for inhibition: e. coli membranes", "description": "Determination of testosterone 6β-hydroxylation. The human liver microsomes or the P450 3A4 and reductase containing E. coli membrane fractions (100 μmol of P450) were incubated with 200 μM testosterone in 1 ml of 50 mM Hepes buffer (pH 7.5). The reactions were initiated by the addition of 1 mM NADPH and terminated by 1 ml of ethyl acetate in ice. The 6β-hydoxytestosterone product was determined by HPLC on a C18 column (Microsorb-MV, 5 μm, 4.6×15 cm) eluted with a mobile phase of 65% of methanol at flow rate of 1 ml/min and the eluate was monitored by UV detection at 254 nm."}, "human CYP3A4": {"target": "human CYP3A4 (Homo sapiens, UniProt P08684)", "sequence (P08684 whole entry)": "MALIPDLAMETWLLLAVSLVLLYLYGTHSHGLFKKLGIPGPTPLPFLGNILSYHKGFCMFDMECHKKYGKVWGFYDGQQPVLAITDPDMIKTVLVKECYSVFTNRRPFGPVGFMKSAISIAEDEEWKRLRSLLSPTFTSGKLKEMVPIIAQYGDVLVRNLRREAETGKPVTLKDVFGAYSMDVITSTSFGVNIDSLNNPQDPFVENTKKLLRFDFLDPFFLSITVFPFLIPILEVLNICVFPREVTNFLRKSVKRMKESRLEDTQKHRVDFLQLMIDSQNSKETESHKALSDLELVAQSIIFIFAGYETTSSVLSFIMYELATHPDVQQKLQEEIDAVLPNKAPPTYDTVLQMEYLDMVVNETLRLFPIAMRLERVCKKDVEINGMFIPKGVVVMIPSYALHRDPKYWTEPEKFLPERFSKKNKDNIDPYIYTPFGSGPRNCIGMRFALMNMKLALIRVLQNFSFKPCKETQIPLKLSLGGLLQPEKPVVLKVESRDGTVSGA", "experiment": "6β-hydroxytestosterone formation in human lymphoblast microsomes containing CYP3A4 expressed from transfected human CYP3A4 cDNA", "method": "(§1) Measurement of CYP3A Activity. CYP3A activity was assessed by measuring the formation rate of 6β-hydroxytestosterone from testosterone in dexamethasone-induced liver microsomes from male Sprague-Dawley rats (Human Biologics Inc., Phoenix, Az.) using incubation conditions identical to those described previously. Edwards, D. J. et al., Life Sci. 59:1025-1030 (1996). […] Siess, M.-H. et al., Toxicol. Appl. Pharmacol. 130:73-78 (1995). In addition, 6β-hydroxytestosterone formation was also measured in human lymphoblast microsomes containing CYP3A4 expressed from transfected human CYP3A4 cDNA (Gentest Corporation, Woburn, Mass.).\n(§2) HPLC Procedures and instrumentation. […] Methylene chloride (4 ml) was added and samples were vortex mixed for 2 minutes. After centrifugation, the organic phase was evaporated, the residue re-constituted in 200 μl of mobile phase (55% methanol in water) and injected (100 μl) onto the column (Partisil 5 ODS-3 25 cm C18 column, Whatman Inc., Clifton, N.J.). A mobile phase flow rate of 1.2 ml/minute was used with detection of analytes at 254 nm (Waters 490E multiwavelength UV detector, Waters Corp., Milford, Mass.).\nMetabolic Experiments. Grapefruit juice (1 ml) was extracted into methylene chloride and, following evaporation of the organic phase, the residue was reconstituted in mobile phase and chromatographed by HPLC. […]"}, "CYP3A [3]": {"tested_on": "CYP3A", "experiment": "CYP3A activity: 6β-hydroxytestosterone formation from testosterone in rat liver microsomes", "method": "as §1, §2\nMetabolic Experiments. Grapefruit juice (1 ml) was extracted into methylene chloride and, following evaporation of the organic phase, the residue was reconstituted in mobile phase and chromatographed by HPLC. Fractions of the HPLC eluent were collected at 3-4 minute intervals following injection, evaporated and the effect of the residue on 6β-hydroxytestosterone formation examined. […] Edwards, D. J. et al., Life Sci. 59:1025-1030 (1996). The effect of these solutions on 6β-hydroxytestosterone formation was compared using analysis of variance (SYSTAT for Windows™, Version 5.0) with the Tukey test for post-hoc analysis (p<0.05 for significance)."}, "[4]": {"experiment": "Solubility in ethanol versus water", "format": "physicochemical", "settings": "ethanol vs water"}, "P450 [5]": {"tested_on": "P450", "settings": "in vivo, treated rats; cited from earlier work"}, "P450 1A1": {"tested_on": "P450 1A1", "settings": "cited from earlier work"}, "P450 1A2": {"tested_on": "P450 1A2", "settings": "cited from earlier work"}, "P450 [6]": {"tested_on": "P450", "settings": "oral erythromycin; oral and IV midazolam; cited from earlier work"}, "CYP3A [7]": {"tested_on": "CYP3A", "settings": "co-administration; cited from earlier work"}, "CYP3A [8]": {"tested_on": "CYP3A", "settings": "cited from earlier work"}, "CYP3A4": {"tested_on": "CYP3A4", "settings": "human, in vivo; cited from earlier work"}, "oxidative metabolism": {"tested_on": "oxidative metabolism", "settings": "in vitro; cited from earlier work"}, "cytochrome P450 [9]": {"tested_on": "cytochrome P450", "settings": "dose far in excess of the amount in grapefruit juice; cited from earlier work"}, "cytochrome P450 [10]": {"tested_on": "cytochrome P450", "settings": "cited from earlier work"}, "[11]": {"settings": "preincubation with DHB and NADPH"}}, "note": "Where two headings read alike, the source gives them in different places."}
{"compound": "C#Cc1ccc2c(ccc3ccccc32)c1", "note": "[2-ethynylphenanthrene]", "values": [{"measurement": "mechanism based inactivation", "setting": "P450 2B1", "result": "mechanism based inactivation"}, {"measurement": "mechanism based inactivation", "setting": "P450 2B4", "result": "mechanism based inactivation"}]}
{"compound": "C/C(=C\\COc1c2ccoc2cc2oc(=O)ccc12)CCC(O)C(C)(C)O", "note": "(centres unmarked) [6',7'-dihydroxybergamottin]", "values": [{"measurement": "effect of GSH on inactivation", "setting": "P450 3A4 [1]; 2 mM GSH in the incubation system", "result": "not inhibited by the presence of 2 mM GSH"}, {"measurement": "P450 Content", "setting": "P450 3A4 [1]; +NADPH/+DHB", "result": 0.87, "unit": "nmol/mL"}, {"measurement": "Testosterone 6-β hydroxylation", "setting": "P450 3A4 [1]; +NADPH/+DHB", "result": 0.18, "unit": "nmol/nmol P450/min"}, {"measurement": "P450 Content", "setting": "P450 3A4 [1]; -NADPH/+DHB", "result": 0.93, "unit": "nmol/mL"}, {"measurement": "Testosterone 6-β hydroxylation", "setting": "P450 3A4 [1]; -NADPH/+DHB", "result": 0.37, "unit": "nmol/nmol P450/min"}, {"measurement": "inhibition of 6β-hydroxytestosterone formation activity, mode", "setting": "P450 3A4 [1]; FIG. 4, human liver microsomes", "result": "time and concentration dependent as well as requiring catalytic turnover"}, {"measurement": "P450 3A4 activity inhibition, in words", "setting": "P450 3A4 [1]; human liver microsomes", "result": "significantly inhibited"}, {"measurement": "inactivation of 3A4, in words", "setting": "P450 3A4 [1]; human liver microsomes", "result": "potent NADPH- and time dependent inactivator of 3A4"}, {"measurement": "P450 retained (reduced-CO spectrum)", "setting": "P450 3A4 [1]; [11]", "result": "about 90%"}, {"measurement": "loss of P450 3A4 catalytic activity", "setting": "P450 3A4 [1]; [11]", "result": 70, "unit": "%"}, {"measurement": "inhibition at 20 µM", "setting": "P450 3A4 [1]; without preincubation, final concentration of 20 μM, read-out: testosterone 6β-hydroxylase activity inhibited (competitive inhibition)", "result": "~30", "unit": "%"}, {"measurement": "inactivation of 3A4, in words", "setting": "CYP3A4 (3A4)", "result": "potent NADPH- and time dependent inactivator of 3A4"}, {"measurement": "inhibition", "setting": "P450 3A4 [2]", "result": "~45", "unit": "%"}, {"measurement": "inhibition", "setting": "P450 3A4 [2]; 15 min", "result": 90, "unit": "%"}, {"measurement": "inactivation of 3A4, in words", "setting": "P450 3A4 [2]; human 3A4 expressed in E. coli membrane", "result": "potent NADPH- and time dependent inactivator of 3A4"}, {"measurement": "IC50", "setting": "human CYP3A4", "result": "1 to 2", "unit": "µM"}, {"measurement": "inhibition, concentration dependence and need of pre-incubation", "setting": "CYP3A [3]", "result": "inhibition is concentration-dependent and requires no pre-incubation with microsomes"}, {"measurement": "IC50", "setting": "CYP3A [3]; microsomes", "result": 25, "unit": "µM"}, {"measurement": "solubility, in words", "setting": "[4]", "result": "much more soluble in ethanol than water"}]}
{"compound": "COc1c2occc2cc2ccc(=O)oc12", "note": "[8-methoxyporalen]", "values": [{"measurement": "heme fragment, MI complex and heme adduct formation", "setting": "P450 [5]", "result": "no heme fragment, MI complex and heme adduct formation"}]}
{"compound": "C#Cc1cc2ccccc2c2ccccc12", "note": "[9-ethynylphenanthrene]", "values": [{"measurement": "mechanism based inactivation", "setting": "P450 2B1", "result": "mechanism based inactivation"}, {"measurement": "mechanism based inactivation", "setting": "P450 2B4", "result": "mechanism based inactivation"}]}
{"compound": "COc1c2ccoc2cc2cc(C)oc(=O)c12", "note": "[coriandrin]", "values": [{"measurement": "binding to apoP450", "setting": "P450 1A1", "result": "covalent binding"}, {"measurement": "binding to apoP450", "setting": "P450 1A2", "result": "covalent binding"}]}
{"compound": "CC[C@H]1OC(=O)[C@H](C)[C@@H](O[C@H]2C[C@@](C)(OC)[C@@H](O)[C@H](C)O2)[C@H](C)[C@@H](O[C@@H]2O[C@H](C)C[C@H](N(C)C)[C@H]2O)[C@](C)(O)C[C@@H](C)C(=O)[C@H](C)[C@@H](O)[C@]1(C)O", "note": "[erythromycin]", "values": [{"measurement": "metabolism of midazolam", "setting": "P450 [6]", "result": "impaired the metabolism of midazolam after both oral and IV administration"}]}
{"compound": "CC(=O)N1CCN(c2ccc(OCC3COC(Cn4ccnc4)(c4ccc(Cl)cc4Cl)O3)cc2)CC1", "note": "(centres unmarked) [ketoconazole, reference compound]", "values": [{"measurement": "bioavailability of cyclosporine", "setting": "CYP3A [7]", "result": "increases bioavailability"}, {"measurement": "IC50", "setting": "CYP3A [3]; read-out: concentration required to inhibit 6β-hydroxytestosterone formation by 50% (IC50), rat liver microsomes (dexamethasone-induced)", "result": "[…]"}]}
{"compound": "O=C1C[C@@H](c2ccc(O)cc2)Oc2cc(O)cc(O)c21", "note": "[naringenin]", "values": [{"measurement": "inhibition of CYP3A / contribution to it", "setting": "CYP3A [8]", "result": "do not significantly contribute"}]}
{"compound": "C[C@@H]1O[C@@H](O[C@H]2[C@H](Oc3cc(O)c4c(c3)O[C@H](c3ccc(O)cc3)CC4=O)O[C@H](CO)[C@@H](O)[C@@H]2O)[C@H](O)[C@H](O)[C@H]1O", "note": "[naringin]", "values": [{"measurement": "inhibition of CYP3A / contribution to it", "setting": "CYP3A [8]", "result": "do not significantly contribute"}, {"measurement": "effect on disposition of substrates for CYP3A4", "setting": "CYP3A4", "result": "did not significantly affect"}, {"measurement": "inhibition of oxidative metabolism", "setting": "oxidative metabolism", "result": "weak inhibitor"}]}
{"compound": "O=c1c(O)c(-c2ccc(O)c(O)c2)oc2cc(O)cc(O)c12", "note": "[quercetin]", "values": [{"measurement": "effect on cytochrome P450 activity", "setting": "cytochrome P450 [9]", "result": "no effect"}]}
{"compound": "chlorophyllin", "values": [{"measurement": "inhibition of cytochrome P450 activity", "setting": "cytochrome P450 [10]", "result": "non-specific inhibition of cytochrome P450 activity"}]}
